Legend:
c-Cbl (residues 47-435) = c-Cbl (residues 47-435) (Homo sapiens (Human), UniProt P22681); test: c-Cbl SPR assay; format: binding; details: 20° C.
Procedure, shortened: (§1)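 Captured protein (1300-1500 RU for both isoforms) was probed in multi-cycle kinetics with 6 concentrations in 2-fold dilution, 60 s contact, 40 μl/min, dissociation 120-1200 s, double-referenced. Kinetic and affinity parameters came from a 1:1 binding fit. For slow off-rates, kd was set independently by a chaser-based method.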

[1] = molecular target: Human Cbl-b (residues 40-426) (Homo sapiens (Human), UniProt Q13191); test: Cbl-b SPR assay; format: binding; details: for Fold of selectivity: C-cbl SPR Kd vs Cbl-b SPR Kd; for Kd: SPR, 20° C.
Chain of Human Cbl-b (residues 40-426) (Q13191 40-426): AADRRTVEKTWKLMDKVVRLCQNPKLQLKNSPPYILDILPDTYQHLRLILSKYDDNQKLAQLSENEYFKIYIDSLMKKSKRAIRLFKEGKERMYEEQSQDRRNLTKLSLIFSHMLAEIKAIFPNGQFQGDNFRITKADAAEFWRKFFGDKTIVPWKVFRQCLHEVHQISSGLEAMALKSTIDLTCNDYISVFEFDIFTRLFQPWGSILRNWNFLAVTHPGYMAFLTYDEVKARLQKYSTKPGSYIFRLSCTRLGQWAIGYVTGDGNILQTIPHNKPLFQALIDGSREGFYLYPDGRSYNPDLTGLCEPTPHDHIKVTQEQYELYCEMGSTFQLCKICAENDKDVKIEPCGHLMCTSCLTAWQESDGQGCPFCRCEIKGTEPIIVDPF
Procedure, shortened: as §1

c-Cbl = c-Cbl (Homo sapiens (Human), UniProt P22681); test: C-Cbl LCK Ub TR-FRET assay (C-cbl Lck HTRF); format: biochemical
Chain of c-Cbl (P22681 47-435): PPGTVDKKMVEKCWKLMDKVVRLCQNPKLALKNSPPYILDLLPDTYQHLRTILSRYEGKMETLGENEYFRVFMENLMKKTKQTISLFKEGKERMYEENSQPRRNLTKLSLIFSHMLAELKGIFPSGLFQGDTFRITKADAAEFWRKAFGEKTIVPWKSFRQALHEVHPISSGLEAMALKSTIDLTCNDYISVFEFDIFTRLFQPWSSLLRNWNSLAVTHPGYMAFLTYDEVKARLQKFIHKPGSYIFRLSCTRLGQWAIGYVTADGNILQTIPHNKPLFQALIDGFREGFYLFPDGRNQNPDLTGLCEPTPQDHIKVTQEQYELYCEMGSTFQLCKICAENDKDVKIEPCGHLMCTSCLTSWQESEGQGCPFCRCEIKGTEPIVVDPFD
Procedure, shortened: (§2)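 After the ubiquitination reaction, detection mixture was added and plates incubated 20 min at room temperature before reading. IC50 values were calculated with wells lacking LCK as the low control and DMSO as the high control.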

Cbl-b = Cbl-b (Homo sapiens (Human), UniProt Q13191); test: Cbl-b LCK Ub TR-FRET assay (Cbl-b Lck HTRF); format: biochemical; details: for IC50: Cbl-b LCK Ub TR-FRET; for fold-selectivity (Cbl-b over C-cbl) / (fold-selectivity) Cbl-b and C-Cbl Selectivity: ratio C-cbl Lck HTRF IC50 / Cbl-b Lck HTRF IC50
Chain of Cbl-b (Q13191 40-426): as the sequence (Q13191 40-426) above
Procedure, shortened: as §2

Chain of c-Cbl (residues 47-435) (P22681 47-435): as the sequence (P22681 47-435) above

Cn1cnnc1C1(c2cccc(N3Cc4c(cc(CNC5(C)CCC5)cc4C(F)(F)F)C3=O)c2)CC2(CN(CC(F)(F)F)C2)C1 [Compound 96, 2-(3-(6-(4-methyl-4H-1,2,4-triazol-3-yl)-2-(2,2,2-trifluoroethyl)-2-azaspiro[3.3]heptan-6-yl)phenyl)-6-(((1-methylcyclobutyl)amino)methyl)-4-(trifluoromethyl)-isoindolin-1-one]
Kd (c-Cbl (residues 47-435)): 18000 nM
Fold of selectivity [1]: 4.1×
Kd [1]: 4300 nM
IC50 (c-Cbl): 16000 nM
IC50 (Cbl-b): 4500 nM
fold-selectivity (Cbl-b over C-cbl) (Cbl-b): 3.7x

Cn1cnnc1[C@@H](c1cccc(N2Cc3c(Cl)cc(CNC4(C)CCC4)cc3C2=O)c1)[C@H]1C[C@H](F)C1 (single isomer, unassigned) [Compound 318]
Kd (c-Cbl (residues 47-435)): 2300 nM
Fold of selectivity [1]: 9.6×
Kd [1]: 250 nM
IC50 (c-Cbl): 1600 nM
IC50 (Cbl-b): 280 nM
fold-selectivity (Cbl-b over C-cbl) (Cbl-b): 5.6x

Cn1cnnc1[C@]1(c2cccc(N3Cc4c(cc(CNC5(C)CCC5)cc4C(F)(F)F)C3=O)c2)C[C@@H](OCF)C1 [Compound 371, 2-(3-((1r,3r)-3-(fluoromethoxy)-1-(4-methyl-4H-1,2,4-triazol-3-yl)cyclobutyl)phenyl)-6-(((1-methylcyclobutyl)amino)methyl)-4-(trifluoromethyl)isoindolin-1-one]
Kd (c-Cbl (residues 47-435)): 380 nM
Fold of selectivity [1]: 7.8×
Kd [1]: 48 nM
IC50 (c-Cbl): 42 nM
IC50 (Cbl-b): 8.3 nM
fold-selectivity (Cbl-b over C-cbl) (Cbl-b): 5.0x

COCC1(NCc2cc3c(c(C(F)(F)F)c2)CN(c2cccc([C@]4(c5nncn5C)C[C@H](OC)C4)c2)C3=O)CC1 [Compound 487, 2-(3-((1r,3r)-3-methoxy-1-(4-methyl-4H-1,2,4-triazol-3-yl)cyclobutyl)phenyl)-6-(((1-(methoxymethyl)cyclopropyl)amino)methyl)-4-(trifluoromethyl)isoindolin-1-one]
Kd (c-Cbl (residues 47-435)): 210 nM
Fold of selectivity [1]: 41×
Kd [1]: 4.9 nM
IC50 (c-Cbl): 150 nM
IC50 (Cbl-b; Example 121): 19 nM
(fold-selectivity) Cbl-b and C-Cbl Selectivity (Cbl-b): 7.4x

CC(C)[C@H]1CN(C)CCN1Cc1cc2c(c(C(F)(F)F)c1)CN(c1cc([C@]3(c4nncn4C)C[C@H](C)C3)cc(OC3CCCC3)n1)C2=O (single isomer, unassigned) [Compound 73]
Kd (c-Cbl (residues 47-435)): 3 nM
Fold of selectivity [1]: 3.0×
Kd [1]: 1 nM
IC50 (c-Cbl): 35 nM
IC50 (Cbl-b): 22 nM
fold-selectivity (Cbl-b over C-cbl) (Cbl-b): (1.6x)

CO[C@H]1C[C@](c2cccc(N3Cc4c(cc(CNCC5CCC5)cc4C(F)(F)F)C3=O)c2)(c2nncn2C)C1 [Compound 416, 6-(((cyclobutylmethyl)amino)methyl)-2-(3-((1r,3r)-3-methoxy-1-(4-methyl-4H-1,2,4-triazol-3-yl)cyclobutyl)phenyl)-4-(trifluoromethyl)isoindolin-1-one]
Kd (c-Cbl (residues 47-435)): 12 nM
Fold of selectivity [1]: 13×
Kd [1]: 0.87 nM
IC50 (c-Cbl): 11 nM
IC50 (Cbl-b; Example 121): 7.5 nM
(fold-selectivity) Cbl-b and C-Cbl Selectivity (Cbl-b): 1.5x

Cn1cnnc1C1(c2cccc(N3Cc4c(cc(CNC5(C)CCC5)cc4C(F)(F)F)C3=O)c2)CC(OC(F)(F)F)C1 (single isomer, unassigned) [Compound 351, 2-(3-((1r,3r)-1-(4-methyl-4H-1,2,4-triazol-3-yl)-3-(trifluoromethoxy)cyclobutyl)phenyl)-6-(((1-methylcyclobutyl)amino)methyl)-4-(trifluoromethyl)isoindolin-1-one]
Kd (c-Cbl (residues 47-435)): 19 nM
Fold of selectivity [1]: 16×
Kd [1]: 1.2 nM
IC50 (c-Cbl): 20 nM
IC50 (Cbl-b): 6.4 nM
fold-selectivity (Cbl-b over C-cbl) (Cbl-b): 6.4x

CO[C@H]1C[C@](c2cccc(N3Cc4c(cc(CNCC5CC5(F)F)cc4C(F)(F)F)C3=O)c2)(c2nncn2C)C1 (stereo partly drawn) [Compound 482, 6-((((2,2-difluorocyclopropyl)methyl)amino)methyl)-2-(3-((1r,3r)-3-methoxy-1-(4-methyl-4H-1,2,4-triazol-3-yl)cyclobutyl)phenyl)-4-(trifluoromethyl)isoindolin-1-one]
Kd (c-Cbl (residues 47-435)): 30 nM
Fold of selectivity [1]: 15×
Kd [1]: 1.9 nM
IC50 (c-Cbl): 20 nM
IC50 (Cbl-b; Example 121): 5.3 nM
(fold-selectivity) Cbl-b and C-Cbl Selectivity (Cbl-b): 3.7x

CCNc1cc(C2(c3nncn3C)CC(F)(F)C2)cc(N2Cc3c(cc(CNC4(C)CCC4)cc3C(F)(F)F)C2=O)n1 [Compound 17, 2-(4-(3,3-difluoro-1-(4-methyl-4H-1,2,4-triazol-3-yl)cyclobutyl)-6-(ethylamino)pyridin-2-yl)-6-(((1-methylcyclobutyl)amino)methyl)-4-(trifluoromethyl)isoindolin-1-one]
Kd (c-Cbl (residues 47-435)): 1.1 nM
Fold of selectivity [1]: 3.2×
Kd [1]: 0.37 nM
IC50 (c-Cbl): 5.1 nM
IC50 (Cbl-b): 5.5 nM
fold-selectivity (Cbl-b over C-cbl) (Cbl-b): (0.93x)

CC[C@H](NC1(C)CCC1)c1cc2c(c(C(F)(F)F)c1)CN(c1cccc([C@H](c3nncn3C)C3COC3)c1)C2=O [Compound 313, 2-(3-((R)-(4-methyl-4H-1,2,4-triazol-3-yl)(oxetan-3-yl)methyl)phenyl)-6-((S)-1-((1-methylcyclobutyl)amino)propyl)-4-(trifluoromethyl)isoindolin-1-one]
Kd (c-Cbl (residues 47-435)): 0.8 nM
Fold of selectivity [1]: 4.0×
Kd [1]: 0.2 nM
IC50 (c-Cbl): 4.4 nM
IC50 (Cbl-b): 6.4 nM
fold-selectivity (Cbl-b over C-cbl) (Cbl-b): 0.68x

CC(=O)[C@H]1C[C@](c2cccc(N3Cc4c(cc(CNC5(C)CCC5)cc4C(F)(F)F)C3=O)c2)(c2nncn2C)C1 [Compound 347, 2-(3-((1r,3r)-3-acetyl-1-(4-methyl-4H-1,2,4-triazol-3-yl)cyclobutyl)phenyl)-6-(((1-methylcyclobutyl)amino)methyl)-4-(trifluoromethyl)isoindolin-1-one]
Kd (c-Cbl (residues 47-435)): 33 nM
Fold of selectivity [1]: 11×
Kd [1]: 3 nM
IC50 (c-Cbl): 30 nM
IC50 (Cbl-b): 10 nM
fold-selectivity (Cbl-b over C-cbl) (Cbl-b): 3x

CO[C@H]1C[C@@](c2cc(NC(C)C)cc(N3Cc4c(cc(CNC5(C)CCC5)cc4C(F)(F)F)C3=O)c2)(c2nncn2C)C1 [Compound 223, 2-(3-(isopropylamino)-5-((1s,3s)-3-methoxy-1-(4-methyl-4H-1,2,4-triazol-3-yl)cyclobutyl)phenyl)-6-(((1-methylcyclobutyl)amino)methyl)-4-(trifluoromethyl)isoindolin-1-one]
Kd (c-Cbl (residues 47-435)): 22 nM
Fold of selectivity [1]: 7.5×
Kd [1]: 2.9 nM
IC50 (c-Cbl): 21 nM
IC50 (Cbl-b): 15 nM
fold-selectivity (Cbl-b over C-cbl) (Cbl-b): 1.4x

CO[C@H]1C[C@](c2cc(N[C@H](C)CC#N)cc(N3Cc4c(cc(CNC5(C)CCC5)cc4C(F)(F)F)C3=O)c2)(c2nncn2C)C1 (single isomer, unassigned) [Compound 221]
Kd (c-Cbl (residues 47-435)): 7.6 nM
Fold of selectivity [1]: 5.8×
Kd [1]: 1.3 nM
IC50 (c-Cbl): 16 nM
IC50 (Cbl-b): 11 nM
fold-selectivity (Cbl-b over C-cbl) (Cbl-b): 1.5x

Cn1cnnc1[C@H](c1cccc(N2Cc3c(cc(CNC4(C)CCC4)cc3C(F)(F)F)C2=O)c1)C1CC(=O)C1 (single isomer, unassigned) [Compound 115]
Kd (c-Cbl (residues 47-435)): 8.9 nM
Fold of selectivity [1]: 5.2×
Kd [1]: 1.8 nM
IC50 (c-Cbl): 23 nM
IC50 (Cbl-b): 10 nM
fold-selectivity (Cbl-b over C-cbl) (Cbl-b): 2.3x

Cn1cnnc1[C@@H](c1cccc(N2Cc3c(cc(CNC4(C)CCC4)cc3C(F)(F)F)C2=O)c1)[C@H]1C[C@@H](C#N)C1 (single isomer, unassigned) [Compound 140]
Kd (c-Cbl (residues 47-435)): 850 nM
Fold of selectivity [1]: 0.88×
Kd [1]: 980 nM
IC50 (c-Cbl): 1500 nM
IC50 (Cbl-b): 830 nM
fold-selectivity (Cbl-b over C-cbl) (Cbl-b): 1.9x

CC[C@@H](NC1(C)CCC1)c1cc2c(c(C(F)(F)F)c1)CN(c1cccc([C@H](c3nncn3C)C3COC3)c1)C2=O [Compound 314, 2-(3-((R)-(4-methyl-4H-1,2,4-triazol-3-yl)(oxetan-3-yl)methyl)phenyl)-6-((R)-1-((1-methylcyclobutyl)amino)propyl)-4-(trifluoromethyl)isoindolin-1-one]
Kd (c-Cbl (residues 47-435)): 28 nM
Fold of selectivity [1]: 5.5×
Kd [1]: 5.1 nM
IC50 (c-Cbl): 51 nM
IC50 (Cbl-b): 11 nM
fold-selectivity (Cbl-b over C-cbl) (Cbl-b): 4.5x

CO[C@H]1C[C@](c2cccc(N3Cc4c(cc(CN[C@@H](C)C5CCC5)cc4C(F)(F)F)C3=O)c2)(c2nncn2C)C1 [Compound 470, 6-((((S)-1-cyclobutylethyl)amino)methyl)-2-(3-((1r,3S)-3-methoxy-1-(4-methyl-4H-1,2,4-triazol-3-yl)cyclobutyl)phenyl)-4-(trifluoromethyl)isoindolin-1-one]
Kd (c-Cbl (residues 47-435)): 1.5 nM
Fold of selectivity [1]: 2.9×
Kd [1]: 0.35 nM
IC50 (c-Cbl): 4.5 nM
IC50 (Cbl-b; Example 121): 4.4 nM
(fold-selectivity) Cbl-b and C-Cbl Selectivity (Cbl-b): 1.0x

Cn1cnnc1[C@]1(c2cccc(N3Cc4c(cc(CNC5(C)CCC5)cc4C(F)(F)F)C3=O)c2)C[C@H](OCC#N)C1 [Compound 280, 2-((1s,3s)-3-(4-methyl-4H-1,2,4-triazol-3-yl)-3-(3-(6-(((1-methylcyclobutyl)amino)methyl)-1-oxo-4-(trifluoromethyl)isoindolin-2-yl)phenyl)cyclobutoxy)acetonitrile]
Kd (c-Cbl (residues 47-435)): 7.2 nM
Fold of selectivity [1]: 7.0×
Kd [1]: 1.1 nM
IC50 (c-Cbl): 11 nM
IC50 (Cbl-b): 6.8 nM
fold-selectivity (Cbl-b over C-cbl) (Cbl-b): 1.6x

Source: US12187709B2 (Genentech, Inc., priority 2021, dated 2025)
